Experiments:
ULK1 [1] = biological target: T1, ULK1 (Homo sapiens, UniProt O75385); assay: ADP-Glo kinase assay; format: biochemical
T1 sequence (O75385 1-1050): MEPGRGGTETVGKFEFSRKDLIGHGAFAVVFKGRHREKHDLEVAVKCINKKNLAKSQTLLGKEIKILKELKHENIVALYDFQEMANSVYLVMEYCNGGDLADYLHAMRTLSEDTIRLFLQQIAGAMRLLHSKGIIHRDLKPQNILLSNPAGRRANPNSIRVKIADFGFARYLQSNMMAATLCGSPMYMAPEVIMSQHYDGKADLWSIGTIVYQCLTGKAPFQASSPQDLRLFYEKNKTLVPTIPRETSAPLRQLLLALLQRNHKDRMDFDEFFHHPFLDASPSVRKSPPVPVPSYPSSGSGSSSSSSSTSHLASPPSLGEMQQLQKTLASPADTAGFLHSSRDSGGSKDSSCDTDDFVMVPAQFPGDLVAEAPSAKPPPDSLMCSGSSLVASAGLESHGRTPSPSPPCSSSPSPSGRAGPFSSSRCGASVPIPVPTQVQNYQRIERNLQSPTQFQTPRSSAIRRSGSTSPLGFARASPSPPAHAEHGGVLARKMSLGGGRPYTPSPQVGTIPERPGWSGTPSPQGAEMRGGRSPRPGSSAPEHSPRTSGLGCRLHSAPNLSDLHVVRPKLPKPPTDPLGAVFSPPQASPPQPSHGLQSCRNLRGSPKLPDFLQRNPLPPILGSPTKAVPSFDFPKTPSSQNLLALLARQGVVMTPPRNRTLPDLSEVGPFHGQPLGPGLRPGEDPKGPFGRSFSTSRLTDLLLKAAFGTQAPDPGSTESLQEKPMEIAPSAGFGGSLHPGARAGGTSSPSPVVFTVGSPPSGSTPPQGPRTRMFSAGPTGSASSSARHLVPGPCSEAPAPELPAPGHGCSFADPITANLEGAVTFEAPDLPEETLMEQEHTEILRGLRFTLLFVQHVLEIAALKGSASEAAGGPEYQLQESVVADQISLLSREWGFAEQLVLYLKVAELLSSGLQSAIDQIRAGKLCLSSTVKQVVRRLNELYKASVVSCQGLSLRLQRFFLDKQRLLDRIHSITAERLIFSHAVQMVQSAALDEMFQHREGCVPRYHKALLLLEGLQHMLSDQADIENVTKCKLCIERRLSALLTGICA

ULK2 [2] = biological target: T2, ULK2 (Homo sapiens, UniProt Q8IYT8); assay: ADP-Glo kinase assay; format: biochemical
T2 sequence (Q8IYT8 1-1036): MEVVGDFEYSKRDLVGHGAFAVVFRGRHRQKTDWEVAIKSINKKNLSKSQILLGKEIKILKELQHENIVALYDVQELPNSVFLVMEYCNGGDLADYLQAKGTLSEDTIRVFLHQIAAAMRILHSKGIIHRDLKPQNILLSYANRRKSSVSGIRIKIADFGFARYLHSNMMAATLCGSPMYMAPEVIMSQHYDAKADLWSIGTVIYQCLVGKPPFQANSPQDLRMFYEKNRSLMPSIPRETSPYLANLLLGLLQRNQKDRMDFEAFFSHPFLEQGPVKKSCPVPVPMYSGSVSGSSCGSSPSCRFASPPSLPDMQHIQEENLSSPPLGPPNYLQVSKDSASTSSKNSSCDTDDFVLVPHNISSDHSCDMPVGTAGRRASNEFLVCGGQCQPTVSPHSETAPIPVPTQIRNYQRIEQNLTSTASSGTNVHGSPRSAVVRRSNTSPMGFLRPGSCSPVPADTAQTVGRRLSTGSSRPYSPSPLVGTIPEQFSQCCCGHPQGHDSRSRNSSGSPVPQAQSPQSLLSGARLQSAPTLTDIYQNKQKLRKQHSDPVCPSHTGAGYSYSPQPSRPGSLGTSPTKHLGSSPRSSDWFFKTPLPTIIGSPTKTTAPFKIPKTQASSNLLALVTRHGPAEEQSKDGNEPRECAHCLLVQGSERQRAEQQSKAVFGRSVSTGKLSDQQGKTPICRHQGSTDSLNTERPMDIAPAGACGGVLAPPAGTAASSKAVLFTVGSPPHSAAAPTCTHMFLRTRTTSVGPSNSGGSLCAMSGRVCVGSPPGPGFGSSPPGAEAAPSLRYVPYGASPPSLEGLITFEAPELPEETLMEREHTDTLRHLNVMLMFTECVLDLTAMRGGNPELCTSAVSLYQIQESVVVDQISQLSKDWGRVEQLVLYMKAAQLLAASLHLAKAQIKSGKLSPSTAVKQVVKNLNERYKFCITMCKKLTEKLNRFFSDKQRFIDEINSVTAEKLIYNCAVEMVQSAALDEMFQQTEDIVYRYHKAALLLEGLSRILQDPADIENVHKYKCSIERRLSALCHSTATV

kinase domain of ULK2 = biological target: T3, kinase domain of ULK2 (Homo sapiens, UniProt Q8IYT8); conditions: binder
T3 sequence (Q8IYT8 1-276 limits assumed): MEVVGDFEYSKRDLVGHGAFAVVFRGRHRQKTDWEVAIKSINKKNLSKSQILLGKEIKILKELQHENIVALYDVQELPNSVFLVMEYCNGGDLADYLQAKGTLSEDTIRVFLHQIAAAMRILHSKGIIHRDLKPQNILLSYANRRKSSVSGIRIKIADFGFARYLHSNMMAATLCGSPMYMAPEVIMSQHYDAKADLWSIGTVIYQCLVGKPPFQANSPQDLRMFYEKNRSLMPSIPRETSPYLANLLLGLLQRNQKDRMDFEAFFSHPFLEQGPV

kinase domain of ULK1 = biological target: T4, kinase domain of ULK1 (Homo sapiens, UniProt O75385); conditions: binder
T4 sequence (O75385 1-283 limits assumed): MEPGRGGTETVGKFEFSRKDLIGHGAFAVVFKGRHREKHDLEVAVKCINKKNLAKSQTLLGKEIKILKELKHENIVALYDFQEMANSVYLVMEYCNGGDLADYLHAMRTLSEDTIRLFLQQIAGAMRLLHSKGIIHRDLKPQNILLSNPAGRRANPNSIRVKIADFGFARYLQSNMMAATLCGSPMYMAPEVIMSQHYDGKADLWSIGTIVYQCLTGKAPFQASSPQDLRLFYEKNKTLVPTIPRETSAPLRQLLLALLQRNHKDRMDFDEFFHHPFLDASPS

ULK1 [3] = biological target: T1, ULK1; assay: biochemical
ULK1 (NanoBRET) = biological target: T5, ULK1 (NanoBRET) (Homo sapiens, UniProt O75385); assay: NanoBRET cellular target engagement; format: cell-based
T5 sequence (O75385 1-1050): T1 sequence (O75385 1-1050)

ULK2 [4] = biological target: T2, ULK2; assay: biochemical

SMILES | IC50 (ULK1 [1]) [nM] | IC50 (ULK2 [2]) [nM] | ULK2 PTS (ºC) (kinase domain of ULK2) [°C] | ULK1 PTS (ºC) (kinase domain of ULK1) [°C] | IC50 (ULK1 [3]) [nM] | IC50 (ULK1 (NanoBRET)) [nM] | IC50 (ULK2 [4]) [nM]
CNC(=O)c1ccccc1Nc1nc(Nc2ccc(N3CCOCC3)cc2OC)ncc1Cl [6a, 2-(5-Chloro-2-(2-methoxy-4-morpholinophenylamino)pyrimidin-4-ylamino)-N-methylbenzamide] | 153 | > 3000 | 2.31 ± 0.09 | 3.65 ± 0.07 | – | – | –
CNC(=O)c1ccccc1Nc1nc(Nc2ccc3c(c2)CCC(=O)N3)ncc1C(F)(F)F [6d, N-Methyl-2-(2-(2-oxo-1,2,3,4-tetrahydroquinolin-6-ylamino)-5-(trifluoromethyl)pyrimidin-4-ylamino)benzamide] | – | 172 | 3.73 ± 0.81 | 7.70 ± 0.43 | 8 ± 2 | 103 | –

Now from value to molecule:

IC50 (ULK1 [1]) [nM] | IC50 (ULK2 [2]) [nM] | ULK2 PTS (ºC) (kinase domain of ULK2) [°C] | ULK1 PTS (ºC) (kinase domain of ULK1) [°C] | IC50 (ULK1 [3]) [nM] | IC50 (ULK1 (NanoBRET)) [nM] | IC50 (ULK2 [4]) [nM] | SMILES
22 | 1440 | 0.43 ± 0.34 | 0.15 ± 0.06 | – | – | – | CNC(=O)c1ccccc1Nc1nc(Nc2ccc3c(c2)CCC(=O)N3)ncc1Cl [6e, 2-(5-Chloro-2-(2-oxo-1,2,3,4-tetrahydroquinolin-6-ylamino)pyrimidin-4-ylamino)-N-methylbenzamide]
10 | 7 | 15.81 ± 0.06 | 16.50 ± 0.15 | – | 10 | – | CNC(=O)c1ccccc1Nc1nc(Nc2cc(OC)c(OC)c(OC)c2)ncc1C(F)(F)F [6p, N-Methyl-2-(5-(trifluoromethyl)-2-(3,4,5-trimethoxyphenylamino)pyrimidin-4-ylamino)benzamide]
603 | 30000 | 2.71 ± 0.09 | 5.18 ± 0.17 | – | – | > 3000 | CNC(=O)c1ccccc1Nc1ccnc(Nc2cc(OC)c(OC)c(OC)c2)n1 [6q, N-Methyl-2-(2-(3,4,5-trimethoxyphenylamino)pyrimidin-4-ylamino)benzamide]

Reference: article doi:10.1101/2025.10.14.682402v1 (biorxiv, 2025)
